Results from patent publication US20260256792A1, “TREATMENT OF CHRONIC SPONTANEOUS URTICARIA BY ADMINISTERING (R)-2-[3-[4-AMINO-3-(2-FLUORO-4-PHENOXY-PHENYL)PYRAZOLO[3,4-D]PYRIMIDIN-1-YL]PIPERIDINE-1-CARBONYL]-4-METHYL-4-[4-(OXETAN-3-YL)PIPERAZIN-1-YL]PENT-2-ENENITRILE” (priority 2023, published 2026).

Test system: moderate-to-severe chronic spontaneous urticaria (CSU)
Experiment: Phase 2 CSU study: itch severity score over 7 days (ISS7)
Format: in vivo, human
Source text: The study comprises a 12 week, randomized, double-blind, placebo-controlled, multi-center, dose-ranging efficacy and safety phase, followed by a 40 week open label extension (OLE) phase (see FIG. 1). The study consists of three phases and an optional OLE phase. […] Clinically, CSU is characterized by the spontaneous and recurrent appearance of pruritic hives. The proposed primary endpoints were the UAS7 at Week 12 in EU and EU reference countries and the ISS7 in the US. Regardless of where a participant was from, all assessments were the same. The UAS7 score is a composite score containing both the HSS7 and the ISS7. This allowed a global assessment of the two key components of urticaria: hives and itch. […] The UAS is a validated PRO measure. […] The daily UAS scores range from 0 to 6 point/day. […] Patients were to complete the UAS using the e-diary. […] The following secondary endpoints were to be analyzed using the same approach as for the primary endpoint: • Change from baseline in UAS7 at Week 4 • Change from baseline in UAS7 at Week 12 (for US and US reference countries) • Change from baseline in ISS7 at Week 12 (except US and US reference countries) • Change from baseline in HSS7 at Week 12

[1] = Week 7, 400 mg TID, Omalizumab-Naïve
[2] = Week 7, 400 mg TID, Prior Omalizumab Use
[3] = Week 8, 400 mg BID, Omalizumab-Naïve
[4] = Week 8, 400 mg BID, Prior Omalizumab Use
[5] = Week 8, 400 mg QPM, Omalizumab-Naïve
[6] = Week 8, 400 mg QPM, Prior Omalizumab Use
[7] = Week 8, 400 mg TID, Omalizumab-Naïve
[8] = Week 8, 400 mg TID, Prior Omalizumab Use
[9] = Week 9, 400 mg BID, Omalizumab-Naïve
[10] = Week 9, 400 mg BID, Prior Omalizumab Use
[11] = Week 9, 400 mg QPM, Omalizumab-Naïve
[12] = Week 9, 400 mg QPM, Prior Omalizumab Use
[13] = Week 9, 400 mg TID, Omalizumab-Naïve
[14] = Week 9, 400 mg TID, Prior Omalizumab Use
[15] = Week 10, 400 mg BID, Omalizumab-Naïve
[16] = Week 10, 400 mg BID, Prior Omalizumab Use

## CC(C)(C=C(C#N)C(=O)N1CCC[C@@H](n2nc(-c3ccc(Oc4ccccc4)cc3F)c3c(N)ncnc32)C1)N1CCN(C2COC2)CC1 [rilzabrutinib, (R)-2-[3-[4-amino-3-(2-fluoro-4-phenoxy-phenyl)pyrazolo[3,4-d]pyrimidin-1-yl]piperidine-1-carbonyl]-4-methyl-4-[4-(oxetan-3-yl)piperazin-1-yl]pent-2-enenitrile]
[1]
  ISS7 Change from baseline Mean (SD): −8.96 (5.57)
  ISS7 Change from baseline Median: −9.00
  ISS7 Mean (SD): 7.14 (5.35)
  ISS7 Median: 8.00
  ISS7 Percent change from baseline Mean (SD): −55.24 (31.64) %
  ISS7 Percent change from baseline Median: −52.66%
[2]
  ISS7 Change from baseline Mean (SD): −9.94 (7.89)
  ISS7 Change from baseline Median: −7.33
  ISS7 Mean (SD): 7.06 (6.25)
  ISS7 Median: 6.00
  ISS7 Percent change from baseline Mean (SD): −54.94 (32.91) %
  ISS7 Percent change from baseline Median: −48.16%
[3]
  ISS7 Change from baseline Mean (SD): −8.15 (6.15)
  ISS7 Change from baseline Median: −9.00
  ISS7 Mean (SD): 7.33 (6.55)
  ISS7 Median: 6.00
  ISS7 Percent change from baseline Mean (SD): −53.11 (38.61) %
  ISS7 Percent change from baseline Median: −60.00%
[4]
  ISS7 Change from baseline Mean (SD): −11.00 (9.49)
  ISS7 Change from baseline Median: −14.00
  ISS7 Mean (SD): 6.20 (8.32)
  ISS7 Median: 1.00
  ISS7 Percent change from baseline Mean (SD): −61.52 (49.97) %
  ISS7 Percent change from baseline Median: −93.33%
[5]
  ISS7 Change from baseline Mean (SD): −6.03 (4.99)
  ISS7 Change from baseline Median: −6.00
  ISS7 Mean (SD): 10.72 (5.26)
  ISS7 Percent change from baseline Mean (SD): −36.14 (28.79) %
  ISS7 Percent change from baseline Median: −33.68%
[6]
  ISS7 Change from baseline Mean (SD): −14.00 (NC)
  ISS7 Change from baseline Median: −14.00
  ISS7 Mean (SD): 7.00 (NC)
  ISS7 Median: 7.00
[7]
  ISS7 Change from baseline Mean (SD): −9.01 (5.43)
  ISS7 Change from baseline Median: −9.33
  ISS7 Mean (SD): 7.24 (5.51)
  ISS7 Median: 7.00
  ISS7 Percent change from baseline Mean (SD): −55.59 (31.84) %
  ISS7 Percent change from baseline Median: −53.49%
[8]
  ISS7 Change from baseline Mean (SD): −12.67 (6.71)
  ISS7 Change from baseline Median: −14.00
  ISS7 Mean (SD): 4.33 (6.83)
  ISS7 Median: 1.50
  ISS7 Percent change from baseline Mean (SD): −77.10 (31.49) %
  ISS7 Percent change from baseline Median: −86.61%
[9]
  ISS7 Change from baseline Mean (SD): −7.57 (6.14)
  ISS7 Change from baseline Median: −8.00
  ISS7 Mean (SD): 7.63 (7.11)
  ISS7 Median: 7.00
  ISS7 Percent change from baseline Mean (SD): −51.57 (40.77) %
  ISS7 Percent change from baseline Median: −53.33%
[10]
  ISS7 Change from baseline Mean (SD): −10.83 (9.53)
  ISS7 Change from baseline Median: −15.00
  ISS7 Mean (SD): 6.37 (8.47)
  ISS7 Median: 1.00
  ISS7 Percent change from baseline Mean (SD): −60.71 (51.74) %
  ISS7 Percent change from baseline Median: −95.24%
[11]
  ISS7 Change from baseline Mean (SD): −6.39 (5.27)
  ISS7 Change from baseline Median: −5.42
  ISS7 Percent change from baseline Mean (SD): −37.00 (28.06) %
  ISS7 Percent change from baseline Median: −33.33%
[12]
  ISS7 Change from baseline Mean (SD): 11.00 (NC)
  ISS7 Change from baseline Median: −11.00
  ISS7 Mean (SD): 10.00 (NC)
  ISS7 Percent change from baseline Mean (SD): −52.38 (NC) %
  ISS7 Percent change from baseline Median: −52.38%
[13]
  ISS7 Change from baseline Mean (SD): −9.70 (5.57)
  ISS7 Change from baseline Median: −10.00
  ISS7 Mean (SD): 6.68 (5.31)
  ISS7 Median: 7.00
  ISS7 Percent change from baseline Mean (SD): −58.56 (30.66) %
  ISS7 Percent change from baseline Median: −65.00%
[14]
  ISS7 Change from baseline Mean (SD): −12.36 (6.72)
  ISS7 Change from baseline Median: −13.92
  ISS7 Mean (SD): 4.64 (6.72)
  ISS7 Median: 2.00
  ISS7 Percent change from baseline Mean (SD): −74.49 (30.89) %
  ISS7 Percent change from baseline Median: −83.01%
[15]
  ISS7 Change from baseline Mean (SD): −7.07 (6.58)
  ISS7 Change from baseline Median: −7.58
  ISS7 Mean (SD): 8.17 (7.29)
  ISS7 Median: 7.00
  ISS7 Percent change from baseline Mean (SD): −47.10 (43.27) %
  ISS7 Percent change from baseline Median: −48.10%
[16]
  ISS7 Change from baseline Mean (SD): −9.80 (9.55)
  ISS7 Change from baseline Median: −11.00
  ISS7 Mean (SD): 7.40 (8.11)
  ISS7 Median: 4.00
  ISS7 Percent change from baseline Mean (SD): −53.71 (50.05) %
  ISS7 Percent change from baseline Median: −73.33%
Week 10, 400 mg QPM, Omalizumab-Naïve
  ISS7 Change from baseline Mean (SD): −6.43 (5.26)
